# Test results as given in US20040053999A1, “Novel compounds and methods for synthesis and therapy” (priority 1997, published 2004).
# How the values were obtained:
# neuraminidase = molecular target: T1, neuraminidase (UniProt P03468); type: biochemical; conditions: enzyme inhibition in vitro
# T1 construct: IC50; other: compound incubated in enzyme assay buffer before the test
# influenza = conditions: mice, Ryan et al. 1994, cited from earlier work
# [1] = in vivo; cited from earlier work
# [2] = mouse, in vivo, cited from earlier work
# T1 sequence (P03468 whole entry): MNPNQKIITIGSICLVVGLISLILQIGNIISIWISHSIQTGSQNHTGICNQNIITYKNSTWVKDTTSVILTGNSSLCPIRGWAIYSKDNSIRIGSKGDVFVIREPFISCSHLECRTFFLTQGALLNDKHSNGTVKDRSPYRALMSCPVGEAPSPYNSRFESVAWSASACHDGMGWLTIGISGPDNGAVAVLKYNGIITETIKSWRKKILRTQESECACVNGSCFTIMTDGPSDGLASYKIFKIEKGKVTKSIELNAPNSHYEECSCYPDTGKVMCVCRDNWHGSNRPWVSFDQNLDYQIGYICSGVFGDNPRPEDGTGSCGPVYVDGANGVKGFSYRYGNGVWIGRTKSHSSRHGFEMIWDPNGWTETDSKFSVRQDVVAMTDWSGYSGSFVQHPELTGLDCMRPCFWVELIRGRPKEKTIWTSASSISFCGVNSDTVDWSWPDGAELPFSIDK
Structure (SMILES),IC50 (neuraminidase) [nM],In vivo activity (influenza; intraperitoneal administration),Efficacy (influenza; oral dosing),Toxicity [1],Bioavailability ([2]; ip),Oral bioavailability ([2]; po),Clearance from the plasma [2]
CC(=O)N[C@H]1[C@H](O)C=C(C(=O)O)C[C@@H]1N=C(N)N [compound 94],< 1000,–,–,–,–,–,–
COCO[C@@H]1C=C(C(=O)O)C[C@H](N)[C@H]1NC(C)=O [compound 114],1000 to 10000,–,–,–,–,–,–
"CC(=O)N[C@H]1[C@H]([C@H](O)[C@H](O)CO)OC(C(=O)O)=C[C@@H]1N=C(N)N [GG167, 4-guanidino-2,4-dideoxy-2,3-dehydro-N-acetylneuraminic acid]",–,relatively poor,poor,similarly nontoxic,good,poor,rapid
